We go through 16 compounds from patent publication US20240368181A1, “QUINOXALINE DERIVATIVES AND USES THEREOF” (Black Diamond Therapeutics, Inc., priority 2021, published 2024).

The IC50 is the concentration needed to halve the response being measured. A lower IC50 goes with greater potency in that assay.

Type in all cases: cell-based
Assay [1] concerns RT-112 (FGFR3-Tacc3 fusion) cells. Nature of the assay: Cell proliferation assay (CellTiterGlo), RT-112 cells. The settings on record: RT112 cells, inhibition of cell growth, intracellular ATP (CellTiterGlo). An excerpt:
(§1) The following is a non-limiting example that describes a cell proliferation assay used to determine the biological activity of the compounds of the present disclosure. More specifically, the assay as used to assess the ability of the compounds to inhibit cell proliferation.
(§2) Briefly, SNU-16 (FGFR2-amplification) cells, were resuspended at 18,520c/ml mL in RPMI containing 10% Heat Inactivated FBS, 1% L-glutamine and dispensed in duplicate (463c/well) into 384 well plates. UM-UC-14 (FGFR3-S249C) cells were resuspended at 40.000c/ml mL in RPMI containing 10% Heat Inactivated FBS, 1% L-glutamine and dispensed in duplicate (1000c/well) into 384 well plates. DMS-114 (FGFR1 overexpression) cells and were resuspended at 40,000c/ml mL in RPMI containing 10% Heat Inactivated FBS, 1% L-glutamine and dispensed in duplicate (1000c/well) into 384 well plates. RT-112 (FGFR3-Tacc3 fusion) cells were resuspended at 40,000c/ml mL in RPMI containing 10% Heat Inactivated FBS, 1% L-glutamine and dispensed in duplicate (1000c/well) into 384 well plates. To determine the effect of the compounds of the present disclosure on cell proliferation, SNU-16, UM-UC-14, DMS-114 and RT112 cells were incubated for 72 hours in the presence of vehicle control (DMSO) or a compound of the present disclosure at varying concentrations. Inhibition of cell growth was subsequently determined by luminescent quantification (Envision by Perkin Elmer) of intracellular ATP content using CellTiterGlo (Promega), according to the protocol provided by the manufacturer. To determine the IC50 values, the vehicle-treated cells were normalized as viable cells and analyzed using the CDD Vault software (Collaborative Drug Discovery, Burlingame, CA).
For orientation: In ATP-based viability assays light output follows the ATP content of the culture.

For assay [2], the system named is UM-UC-14 (FGFR3-S249C) cells. Nature of the assay: Cell proliferation assay (CellTiterGlo), UM-UC-14 cells. The settings on record: inhibition of cell growth, intracellular ATP (CellTiterGlo).
Excerpt: as §1, §2

Assay [3] has as its system SNU-16 (FGFR2-amplification) cells. As to the kind of experiment: Cell proliferation assay (CellTiterGlo), SNU-16 cells. The settings on record: Homo sapiens, SNU-16, 72 h, inhibition of cell growth, intracellular ATP (CellTiterGlo).
Excerpt: as §1, §2

For assay [4], the system named is DMS-114 (FGFR1 overexpression) cells. As to the kind of experiment: Cell proliferation assay (CellTiterGlo), DMS-114 cells. The settings on record: 72 hours, inhibition of cell growth, intracellular ATP (CellTiterGlo).
Excerpt: as §1, §2

Consider `Cc1cn2ccc(Oc3ccc4ncc(-c5cnn(CC6CCN(C)CC6)c5)nc4c3Cl)cc2n1` [Compound 63], for which the half-inhibitory concentration (IC50) in assay [1] (Homo sapiens, RT-112, 72 h) is 100 to 400 nM; in assay [2] (UMUC14, 72 h), no less than 400 nM; in assay [3], 100 to 400 nM; in assay [4] (Homo sapiens), no less than 400 nM.
In the case of `Cc1nc2ccc(Oc3ccc4ncc(-c5cnn(CC6CCOC(C)(C)C6)c5)nc4c3Cl)cc2[nH]1` (stereo not shown) [Compound 8], the concentration for half-maximal inhibition (IC50) in assay [1] (Homo sapiens, RT-112, 72 h) was less than 20 nM; in assay [2] (UMUC14, 72 h) it was 20 to 100 nM; in assay [3], 20 to 100 nM; in assay [4] (Homo sapiens) it was 100 to 400 nM.
In the case of `CCC(=O)N1CCC(Cn2cc(-c3cnc4ccc(Oc5ccc6nc(C)[nH]c6c5)c(Cl)c4n3)cn2)CC1` [Compound 25], the 50% inhibitory concentration (IC50) in assay [1] (Homo sapiens, RT-112, 72 h) was less than 20 nM; in assay [2] (UMUC14, 72 h) it was 20 to 100 nM; in assay [3], less than 20 nM; in assay [4] (Homo sapiens) it was 100 to 400 nM.
For `COC(=O)CS(=O)(=O)N1CCC(Cn2cc(-c3cnc4ccc(Oc5ccc6nc(C)[nH]c6c5)c(Cl)c4n3)cn2)CC1` [Compound 29], the concentration for half-maximal inhibition (IC50) is 100 to 400 nM in assay [1] (Homo sapiens, RT-112, 72 h); no less than 400 nM in assay [2] (UMUC14, 72 h); no less than 400 nM in assay [3]; no less than 400 nM in assay [4] (Homo sapiens).
In the case of `Cc1nc2ccc(Oc3ccc4ncc(-c5cnn(CC6CCN(S(=O)(=O)CC(C)C)CC6)c5)nc4c3Cl)cc2[nH]1` [Compound 37], the half-maximal inhibitory concentration (IC50) in assay [1] (Homo sapiens, RT-112, 72 h) was 20 to 100 nM; in assay [2] (UMUC14, 72 h), 20 to 100 nM; in assay [3] it was 20 to 100 nM; in assay [4] (Homo sapiens), 100 to 400 nM.
As to `Cc1nc2ccc(Oc3ccc4ncc(-c5cnn(CC6CCN(S(=O)(=O)CCO)CC6)c5)nc4c3Cl)cc2[nH]1` [Compound 13], the half-maximal inhibitory concentration (IC50) in assay [1] (Homo sapiens, RT-112, 72 h) was 20 to 100 nM; in assay [2] (UMUC14, 72 h), 20 to 100 nM; in assay [3], 20 to 100 nM; in assay [4] (Homo sapiens), no less than 400 nM.
Take `Cc1nc2ccc(Oc3ccc4ncc(-c5cnn(CC6CCN(C)CC6)c5)nc4c3Cl)cc2[nH]1` [Compound 14]: the half-inhibitory concentration (IC50) in assay [1] (Homo sapiens, RT-112, 72 h) was less than 20 nM; in assay [2] (UMUC14, 72 h), less than 20 nM; in assay [3] it was less than 20 nM; in assay [4] (Homo sapiens), 100 to 400 nM.
On to `Cc1nc2ccc(Oc3ccc4ncc(-c5cnn(CC6CCN(S(=O)(=O)C(F)F)CC6)c5)nc4c3Cl)cc2[nH]1` [Compound 12], for which the IC50 in assay [1] (Homo sapiens, RT-112, 72 h) fell in the range of 20 to 100 nM; in assay [2] (UMUC14, 72 h), 20 to 100 nM; in assay [3], 20 to 100 nM; in assay [4] (Homo sapiens) it was 100 to 400 nM.
Take `Cc1nc2ccc(Oc3ccc4ncc(-c5cnn(CCC6CCN(C)CC6)c5)nc4c3)cc2[nH]1` [Compound 55]: the IC50 was 100 to 400 nM in assay [1] (Homo sapiens, RT-112, 72 h); 100 to 400 nM in assay [2] (UMUC14, 72 h); 100 to 400 nM in assay [3]; no less than 400 nM in assay [4] (Homo sapiens).
Regarding `Cc1nc2ccc(Oc3ccc4ncc(-c5cnn(CC6CCN(C)C(=O)C6)c5)nc4c3Cl)cc2[nH]1` (stereo not shown) [Compound 20], the IC50 is 20 to 100 nM in assay [1] (Homo sapiens, RT-112, 72 h); 20 to 100 nM in assay [2] (UMUC14, 72 h); 20 to 100 nM in assay [3]; no less than 400 nM in assay [4] (Homo sapiens).
On to `Cc1nc2ccc(Oc3ccc4ncc(-c5cnn(C6CCCNC6)c5)nc4c3Cl)cc2[nH]1` (stereo not shown) [Compound 7], for which the half-inhibitory concentration (IC50) in assay [1] (Homo sapiens, RT-112, 72 h) lay within 20 to 100 nM; in assay [2] (UMUC14, 72 h), 20 to 100 nM; in assay [3] it was 20 to 100 nM; in assay [4] (Homo sapiens) it was 100 to 400 nM.
On to `Cc1nc2ccc(Oc3ccc4ncc(-c5cnn(CC6CCOCC6)c5)nc4c3Cl)cc2[nH]1` [Compound 59], for which the IC50 in assay [1] (72 hours) was less than 20 nM; in assay [2] (72 hours), less than 20 nM; in assay [3] it was less than 20 nM; in assay [4] it was 100 to 400 nM.
On to `Cc1nc2ccc(Oc3ccc4ncc(-c5cnn(CC6CCN(C)C(C)(C)C6)c5)nc4c3Cl)cc2[nH]1` (stereo not shown) [Compound 3], for which the 50% inhibitory concentration (IC50) in assay [1] (Homo sapiens, RT-112, 72 h) lay within 20 to 100 nM; in assay [2] (UMUC14, 72 h), 20 to 100 nM; in assay [3] it was 20 to 100 nM; in assay [4] (Homo sapiens) it was 100 to 400 nM.
With `Cc1nc2c(C#N)cc(Oc3ccc4ncc(-c5cnn(CC6CCOCC6)c5)nc4c3)cc2[nH]1` [Compound 60], the half-maximal inhibitory concentration (IC50) is no less than 400 nM in assay [1] (Homo sapiens, RT-112, 72 h); no less than 400 nM in assay [2] (UMUC14, 72 h); no less than 400 nM in assay [3]; no less than 400 nM in assay [4] (Homo sapiens).
On to `Cc1nc2ccc(Oc3ccc4ncc(-c5cc(CC6CCN(C)CC6)no5)nc4c3Cl)cc2[nH]1` [Compound 64], for which the IC50 in assay [1] (Homo sapiens, RT-112, 72 h) was 100 to 400 nM; in assay [2] (UMUC14, 72 h), 100 to 400 nM; in assay [3] it was 100 to 400 nM; in assay [4] (Homo sapiens) it was no less than 400 nM.
For the compound `Cc1nc2ccc(Oc3cc4nc(-c5cnn(CC6CCOCC6)c5)cnc4cc3Cl)cc2[nH]1` [Compound 48], the IC50 was no less than 400 nM in assay [1] (Homo sapiens, RT-112, 72 h); no less than 400 nM in assay [2] (UMUC14, 72 h); no less than 400 nM in assay [3]; no less than 400 nM in assay [4] (Homo sapiens).
